Experimental data reported in the NIST ThermoML archive (doi:10.1021/je800071q).
± gives the expanded uncertainty stated by the source.

What was measured:
[1] = 101.33 kPa, Liquid; for mass density: 298.1 K; for viscosity: 298.15 K
[2] = refractive index (Na D-line) (dimensionless); details: 298.1 K, 101.33 kPa, Liquid
[3] = Capillary tube (Ostwald / Ubbelohde) method

| mass density ([1]; Vibrating tube method) [kg/m3] | refractive index ([2]; Standard Abbe refractometry) | SMILES | viscosity [1, 3] [mPa·s] | mass density [1] [kg/m3] | viscosity [1] [mPa·s] | refractive index [2] |
| --- | --- | --- | --- | --- | --- | --- |
| 1058.59 ± 0.14 | 1.5253 ± 0.00041 | c1ccsc1 [thiophene] | 0.612 ± 0.007 |  |  |  |
| 687.84 ± 0.23 | 1.38921 ± 0.00041 | CC(C)CC(C)(C)C [2,2,4-trimethylpentane] |  |  |  |  |
|  |  | CCCCCCCCn1cc[n+](C)c1.O=S(=O)([N-]S(=O)(=O)C(F)(F)F)C(F)(F)F |  | 1319.78 ± 4.3 | 90.37 ± 4.8 | 1.4327 ± 0.00089 |

| SMILES | mass density ([1]; Vibrating tube method) [kg/m3] | refractive index ([2]; Standard Abbe refractometry) | viscosity [1, 3] [mPa·s] | mass density [1] [kg/m3] | viscosity [1] [mPa·s] | refractive index [2] |
| --- | --- | --- | --- | --- | --- | --- |
| Cc1ccccc1 [toluene] | 862.2 ± 0.16 | 1.49393 ± 0.00041 | 0.577 ± 0.007 |  |  |  |
